Source: patent US11839613B2, “Pyrimidine derivatives as PGE2 receptor modulators” (IDORSIA PHARMACEUTICALS LTD, priority 2017, dated 2023)

How the values were obtained:
EP4 = EP4 (Homo sapiens (Human), UniProt P35408); assay: hEP4 cAMP assay (BT549 breast cancer cells, HTRF cAMP); assay type: cell-based; settings: antagonistic activity, PGE2 6 nM
Outline: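 BT549 breast cancer cells (endogenous EP4) in HBSS/20 mM HEPES/0.2% BSA/2 mM IBMX preincubated 45 min at RT with compound, then stimulated 30 min at RT with 6 nM PGE2 (final). cAMP read by competitive HTRF immunoassay, signal inversely proportional to cAMP.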

PTGER4 (EP4) = PTGER4 (EP4) (Homo sapiens (Human), UniProt P35408); assay: cell-based
EP2 = EP2 (Homo sapiens (Human), UniProt P43116); assay: hEP2 cAMP assay (SF295 glioblastoma cells, HTRF cAMP); assay type: cell-based; settings: antagonistic activity
Outline: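 PGE2-driven cAMP accumulation was measured by HTRF in SF295 cells, which express endogenous EP2 only. Cells in assay buffer with 2 mM IBMX were pre-incubated 45 min at RT, then incubated 30 min at RT. Detection used competition between cellular cAMP and d2-cAMP for a cryptate anti-cAMP antibody.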

PTGER2 (EP2) = PTGER2 (EP2) (Homo sapiens (Human), UniProt P43116); assay: hEP2 b-arrestin assay (PathHunter HEK 293 PTGER2 b-arrestin cells); assay type: cell-based; settings: antagonistic activity, beta-arrestin assay; read-out: hEP2 b-arr IC50
Procedure: Plate is pre-incubated 15 minutes at 37° C. Then five microliters of PGE2 (final conc. 5 μM) are transferred into the assay plate. Plate is incubated 120 minutes at 37° C.
(each concentration is measured in duplicate)

Chain of EP4 (P35408 whole entry): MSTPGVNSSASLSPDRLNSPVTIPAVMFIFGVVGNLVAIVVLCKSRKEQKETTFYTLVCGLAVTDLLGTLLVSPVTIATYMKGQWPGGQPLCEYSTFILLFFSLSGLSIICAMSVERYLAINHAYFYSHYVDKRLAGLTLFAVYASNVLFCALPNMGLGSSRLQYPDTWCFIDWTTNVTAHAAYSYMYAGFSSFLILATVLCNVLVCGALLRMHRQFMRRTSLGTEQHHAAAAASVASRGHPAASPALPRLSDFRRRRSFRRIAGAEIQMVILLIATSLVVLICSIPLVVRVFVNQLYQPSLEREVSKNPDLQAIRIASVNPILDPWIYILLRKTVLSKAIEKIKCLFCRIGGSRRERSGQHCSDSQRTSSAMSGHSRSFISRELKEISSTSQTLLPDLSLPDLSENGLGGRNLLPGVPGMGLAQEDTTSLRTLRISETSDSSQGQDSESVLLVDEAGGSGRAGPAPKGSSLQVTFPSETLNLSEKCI
Chain of PTGER4 (EP4) (P35408 whole entry): as above
Chain of PTGER2 (EP2) (P43116 whole entry): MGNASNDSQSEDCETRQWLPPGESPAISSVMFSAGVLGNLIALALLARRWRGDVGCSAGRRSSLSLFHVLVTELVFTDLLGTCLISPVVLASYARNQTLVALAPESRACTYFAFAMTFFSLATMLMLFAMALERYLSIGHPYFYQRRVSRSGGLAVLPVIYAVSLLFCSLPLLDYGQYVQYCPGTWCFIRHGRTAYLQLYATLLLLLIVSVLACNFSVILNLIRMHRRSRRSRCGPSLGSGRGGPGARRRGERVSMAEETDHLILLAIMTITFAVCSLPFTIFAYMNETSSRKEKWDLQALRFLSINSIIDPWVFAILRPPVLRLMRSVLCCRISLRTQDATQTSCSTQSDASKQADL
Chain of EP2 (P43116 whole entry): as above

SMILES	IC50 (EP4) [nM]	IC50 (PTGER4 (EP4)) [nM]	IC50 (EP2) [nM]	IC50 (PTGER2 (EP2)) [nM]
CCOc1cc(-c2cc(NCCc3ccc4sccc4c3)ncn2)sc1C(=O)O [Ex 5, 5-[6-(2-Benzo[b]thiophen-5-yl-ethylamino)-pyrimidin-4-yl]-3-ethoxy-thiophene-2-carboxylic acid]	3	5	28	39
CCOc1cc(-c2cc(NCCc3c(OC)cc4occc4c3C)ncn2)sc1C(=O)O [Ex 8, 3-Ethoxy-5-{6-[2-(6-methoxy-4-methyl-benzofuran-5-yl)-ethylamino]-pyrimidin-4-yl}-thiophene-2-carboxylic acid]	6	22	1	5
CCOc1cc(-c2cc(NCCc3cc4ccccc4cc3OC)ncn2)sc1C(=O)O [Ex 9, 3-Ethoxy-5-{6-[2-(3-methoxy-naphthalen-2-yl)-ethylamino]-pyrimidin-4-yl}-thiophene-2-carboxylic acid]	6	6	67	59
CCOc1cc(-c2cc(NCCc3cc4ccoc4cc3OC)ncn2)sc1C(=O)O [Ex 12, 3-Ethoxy-5-{6-[2-(6-methoxy-benzofuran-5-yl)-ethylamino]-pyrimidin-4-yl}-thiophene-2-carboxylic acid]	7	20	3	7
CCOc1cc(-c2cc(NCCc3cc4ccoc4cc3F)ncn2)sc1C(=O)O [Ex 13, 3-Ethoxy-5-{6-[2-(6-fluoro-benzofuran-5-yl)-ethylamino]-pyrimidin-4-yl}-thiophene-2-carboxylic acid]	8	9	15	12
COc1cc2sccc2cc1CCNc1cc(-c2ccc(C(=O)O)c(SC)c2)ncn1 [Ex 18, 4-{6-[2-(6-Methoxy-benzo[b]thiophen-5-yl)-ethylamino]-pyrimidin-4-yl}-2-methylsulfanyl-benzoic acid]	10	70	4	6
CCOc1cc(-c2cc(NCCc3ccc4cc[nH]c4c3)ncn2)sc1C(=O)O [Ex 24, 3-Ethoxy-5-{6-[2-(1H-indol-6-yl)-ethylamino]-pyrimidin-4-yl}-thiophene-2-carboxylic acid]	15	18	52	72
O=C(O)c1ccc(-c2cc(NCCc3ccc4ccsc4c3)ncn2)cc1OC1CCC1 [Ex 147]	141	219	571	
CCSc1cc(-c2cc(NCCc3c(F)cc4ncccc4c3F)ncn2)ccc1C(=O)O [Ex 153]	146	757	340	
CCOc1cc(-c2cc(NCCc3ccc4sccc4c3)ncn2)ccc1C(C)C(=O)O (stereo not shown) [Ex 161]	130	199	524	
CCOc1cc(-c2cc(NCCc3cc4ccccc4cc3OC)ncn2)ccc1C(=O)O [Ex 162]	158	134	371	
CCOc1cc(-c2cc(NCCc3ccc4ccccc4c3C)ncn2)ccc1OCC(=O)O [Ex 166]	165	49	297	
CCOc1cc(-c2cc(NCCc3ccc4ccsc4c3)ncn2)ccc1C(=O)O [Ex 167, 4-[6-(2-Benzo[b]thiophen-6-yl-ethylamino)-pyrimidin-4-yl]-2-ethoxy-benzoic acid]	166	361	714	
CCOc1cc(-c2cc(NCCc3cc4c(cc3OC)OCCO4)ncn2)ccc1CC(=O)O [Ex 175]	185	179	301	
CSc1cc(-c2cc(NCCc3ccc4ccsc4c3)ncn2)ccc1C(=O)O [Ex 176]	185	179	293	
CSc1cc(-c2cc(NCCc3ccc4c(c3)CCC4)ncn2)ccc1C(=O)O [Ex 185, 4-[6-(2-Indan-5-yl-ethylamino)-pyrimidin-4-yl]-2-methylsulfanyl-benzoic acid]	200	258	452	
CCOc1cc(-c2cc(NCCc3ccc4cc[nH]c4c3)ncn2)ccc1OCC(=O)O [Ex 194, (2-Ethoxy-4-{6-[2-(1H-indol-6-yl)-ethylamino]-pyrimidin-4-yl}-phenoxy)-acetic acid]	212	325	295	
CCOc1cc(-c2cc(NCCc3cc4ccoc4cc3F)ncn2)ccc1CC(=O)O [Ex 195]	217	245	373	
O=C(O)c1ccc(-c2cc(NCCc3ccc4c(c3)CCC4)ncn2)cc1OC1CCC1 [Ex 206, 2-Cyclobutoxy-4-[6-(2-indan-5-yl-ethylamino)-pyrimidin-4-yl]-benzoic acid]	248	304	572	

SMILES	IC50 (EP4) [nM]	IC50 (PTGER4 (EP4)) [nM]	IC50 (EP2) [nM]	IC50 (PTGER2 (EP2)) [nM]
CCOc1cc(-c2cc(NCCc3ccc4ccn(C)c4c3)ncn2)ccc1OCC(=O)O [Ex 207]	248	234	673	
CSc1cc(-c2cc(NCCc3cc(F)c4c(c3)OCCO4)ncn2)ccc1C(=O)O [Ex 216]	267	307	490	
CSc1cc(-c2cc(NCCc3ccc4ccccc4c3)ncn2)ccc1C(=O)O [Ex 219, 2-Methylsulfanyl-4-[6-(2-naphthalen-2-yl-ethylamino)-pyrimidin-4-yl]-benzoic acid]	129	202	486	
CCOc1cc(-c2cc(NCCc3cc4ccccc4cc3C)ncn2)ccc1C(=O)O [Ex 240, 2-Ethoxy-4-{6-[2-(3-methyl-naphthalen-2-yl)-ethylamino]-pyrimidin-4-yl}-benzoic acid]	346	598	816	
CCOc1cc(-c2cc(NCCc3ccc4ccn(CC)c4c3)ncn2)sc1C(=O)O [Ex 242]	351	495	443	
CSc1cc(-c2cc(NCCc3ccc4c(c3)CCCO4)ncn2)ccc1C(=O)O [Ex 257, 4-[6-(2-Chroman-6-yl-ethylamino)-pyrimidin-4-yl]-2-methylsulfanyl-benzoic acid]	389	417	282	
O=C(O)c1ccc(-c2cc(NCCc3ccc4c(c3)CCCO4)ncn2)cc1OC1CCC1 [Ex 266, 4-[6-(2-Chroman-6-yl-ethylamino)-pyrimidin-4-yl]-2-cyclobutoxy-benzoic acid]	428	444	537	
CSc1cc(-c2cc(NCCc3ccc4c(c3)OCCC4)ncn2)ccc1C(=O)O [Ex 285, 4-[6-(2-Chroman-7-yl-ethylamino)-pyrimidin-4-yl]-2-methylsulfanyl-benzoic acid]	513	341	7520	
CSc1cc(-c2cc(NCCc3cc(C)c4c(c3)OCCO4)ncn2)ccc1C(=O)O [Ex 292]	538	1510	688	
O=C(O)c1ccc(-c2cc(NCCc3ccc4c(c3)OCC4)ncn2)cc1OC1CCC1 [Ex 295]	568	603	520	
CCOc1cc(-c2cc(NCCc3ccc4scc(C)c4c3)ncn2)ccc1CC(=O)O [Ex 297]	592	2120	782	
Cc1csc2ccc(CCNc3cc(-c4ccc(C(=O)O)c(OC5CCC5)c4)ncn3)cc12 [Ex 306]	654	610	274	
CSc1cc(-c2cc(NCCc3ccc4c(c3)OCCO4)ncn2)ccc1C(=O)O [Ex 310]	683	937	564	
CCOc1cc(-c2cc(NCCc3ccc4occc4c3)ncn2)ccc1CC(=O)O [Ex 311, {4-[6-(2-Benzofuran-5-yl-ethylamino)-pyrimidin-4-yl]-2-ethoxy-phenyl}-acetic acid]	685	310	538	
CSc1cc(-c2cc(NCCc3ccc4[nH]ccc4c3)ncn2)ccc1C(=O)O [Ex 319]	559	1180	354	
CCOc1cc(-c2cc(NCCc3ccc4c(c3)OCCC4)ncn2)ccc1CC(=O)O [Ex 332, {4-[6-(2-Chroman-7-yl-ethylamino)-pyrimidin-4-yl]-2-ethoxy-phenyl}-acetic acid]	1510	415	12200	
CCOc1cc(-c2cc(NCCc3ccc4ccccc4c3)ncn2)sc1-c1noc(=O)[nH]1 [Example 345, 3-{3-Ethoxy-5-[6-(2-naphthalen-2-yl-ethylamino)-pyrimidin-4-yl]-thiophen-2-yl}-[1,2,4]oxadiazol-5(4H)-one]	30	6	683	
CCOc1cc(-c2cc(NCCc3c(F)cc4ncccc4c3F)ncn2)sc1-c1noc(=O)[nH]1 [Example 346, 3-(5-{6-[2-(5,7-Difluoro-quinolin-6-yl)-ethylamino]-pyrimidin-4-yl}-3-ethoxy-thiophen-2-yl)-[1,2,4]oxadiazol-5(4H)-one]	110	57	282	
CCOc1cc(-c2cc(NCCc3cc4cccnc4cc3F)ncn2)sc1C(=N)NO [Example 347, 3-Ethoxy-5-{6-[2-(7-fluoro-quinolin-6-yl)-ethylamino]-pyrimidin-4-yl}-N-hydroxy-thiophene-2-carboxamidine]	172	31	495	
